Experimental data: US8846928B2 (Portola Pharmaceuticals, Inc., priority 2010, dated 2014)

What follows are compounds tested against T1, full length active recombinant SYK enzyme (Homo sapiens, UniProt P43405) (assay: Inhibition of Syk tyrosine phosphorylation activity (LANCE TR-FRET kinase assay)).
T1 construct: full length active recombinant SYK enzyme (Millipore, Calif.); purchased Millipore
Format: biochemical
With `NC(=O)c1ccc(N[C@@H]2CCCC[C@@H]2N)nc1Nc1cncc(-c2ncccn2)c1` [Example 157, 6-((1R,2S)-2-aminocyclohexylamino)-2-(5-(pyrimidin-2-yl)pyridin-3-ylamino)nicotinamide] the IC50 was 10 to 100 nM.
`CC[C@H](CN)Nc1nc(Nc2cncc(C)c2)c(C(N)=O)cc1F` [Example 95, (R)-6-(1-aminobutan-2-ylamino)-5-fluoro-2-(5-methylpyridin-3-ylamino)nicotinamide] was tested, and the IC50 was 10 to 100 nM.
In the case of `NC(=O)c1cc(F)c(N[C@@H]2CCCC(F)(F)[C@@H]2N)nc1Nc1cnc2ccccc2c1` [Example 289, 6-((1R,2R)-2-amino-3,3-difluorocyclohexylamino)-5-fluoro-2-(quinolin-3-ylamino)nicotinamide], the IC50 is reported as 100 to 1000 nM.
Compound `Cn1ncc2c(Nc3nc(N[C@@H]4CCCC[C@@H]4N)c(C#N)cc3C(N)=O)cccc21` [Example 120, 6-((1R,2S)-2-aminocyclohexylamino)-5-cyano-2-(1-methyl-1H-indazol-4-ylamino)nicotinamide] has an IC50 of 1 to 10 nM.
`CC[C@@H](Nc1nc(Nc2cccc(OC(F)(F)F)c2)c(C(N)=O)cc1F)C(N)=O` [Example 263, (R)-6-(1-amino-1-oxobutan-2-ylamino)-5-fluoro-2-(3-(trifluoromethoxy)phenylamino)nicotinamide] was tested, and the IC50 was 100 to 1000 nM.
In the case of `N#Cc1cc(C(N)=O)c(Nc2ccc3[nH]ncc3c2)nc1N[C@@H]1CCCC[C@@H]1N` [Example 117], the IC50 is reported as 1 to 10 nM.
`NC(=O)c1cc(F)c(N[C@@H]2CCCC[C@@H]2N)nc1Nc1cccnc1` [Example 174, 6-((1R,2S)-2-aminocyclohexylamino)-5-fluoro-2-(pyridin-3-ylamino)nicotinamide] gave an IC50 of 1 to 10 nM.
`NC(=O)c1cc(F)c(N[C@H]2[C@@H](N)CCCC2(F)F)nc1Nc1cccc(-n2nccn2)c1` [Example 340] showed an IC50 of 1 to 10 nM.
With `COc1cncc(Nc2nc(N[C@@H]3CCCC[C@@H]3N)ccc2C(N)=O)c1` [Example 164] the IC50 was 1 to 10 nM.
In the case of `Cc1cc(Nc2cc(N[C@H](CO)C(N)=O)ccc2C(N)=O)sn1` [Example 16, (R)-4-(1-amino-3-hydroxy-1-oxopropan-2-ylamino)-2-(3-methylisothiazol-5-ylamino)benzamide], the IC50 is reported as 100 to 1000 nM.
`NC(=O)c1ccc(N[C@@H]2CCCC[C@@H]2N)nc1Nc1cccc(-n2cncn2)c1` [Example 138, 2-(3-(1H-1,2,4-triazol-1-yephenylamino)-6-(1R,2S)-2-aminocyclohexylamino)nicotinamide] showed an IC50 of 1 to 10 nM.
`NC(=O)c1cc(F)c(N[C@@H]2CCCC[C@@H]2N)nc1Nc1cccc(-n2cccn2)c1` [Example 45, 2-(3-(1H-pyrazol-1-yl)phenylamino)-6-((1R,2S)-2-aminocyclohexylamino)-5-fluoronicotinamide] gave an IC50 of 1 to 10 nM.
Compound `NC(=O)c1cc(F)c(N[C@@H]2CCCC[C@@H]2N)nc1Nc1cccc(-n2ccnc2)c1` [Example 46, 2-(3-(1H-imidazol-1-yl)phenylamino)-6-((1R,2S)-2-aminocyclohexylamino)-5-fluoronicotinamide] has an IC50 of 1 to 10 nM.
In the case of `Cc1ccc(Nc2nc(N[C@@H]3CCOC[C@@H]3N)c(F)cc2C(N)=O)cc1` [Example 349, 6-((3R,4R)-3-aminotetrahydro-2H-pyran-4-ylamino)-5-fluoro-2-(p-tolylamino)nicotinamide], the IC50 is reported as 10 to 100 nM.
`Cc1ccc(Nc2nc(N[C@@H]3CCCC[C@@H]3N)c(F)cc2C(N)=O)cc1F` [Example 323] showed an IC50 of 1 to 10 nM.
In the case of `CC(C)C[C@@H](Nc1nc(Nc2cnc3ccccc3c2)c(C(N)=O)cc1F)C(N)=O` [Example 247, (R)-6-(1-amino-4-methyl-1-oxopentan-2-ylamino)-5-fluoro-2-(quinolin-3-ylamino)nicotinamide], the IC50 is reported as 10 to 100 nM.
With `CC(C)[C@@H](Nc1nc(Nc2cnc3ccccc3c2)c(C(N)=O)cc1F)C(N)=O` [Example 300, (R)-6-(1-amino-3-methyl-1-oxobutan-2-ylamino)-5-fluoro-2-(quinolin-3-ylamino)nicotinamide] the IC50 was 10 to 100 nM.
Compound `NC(=O)c1cc(F)c(N[C@@H]2CCCC[C@@H]2N)nc1Nc1ccnc2ncccc12` [Example 151, 2-(1,8-naphthyridin-4-ylamino)-6-((1R,2S)-2-aminocyclohexylamino)-5-fluoronicotinamide] has an IC50 of 1 to 10 nM.
`NC(=O)c1cc(F)c(N[C@H]2CCCNC2)nc1Nc1ccc2ncccc2c1` [Example 143, (S)-5-fluoro-6-(piperidin-3-ylamino)-2-(quinolin-6-ylamino)nicotinamide] was tested, and the IC50 was > 1000 nM.
`CC[C@@H](Nc1nc(Nc2cnc3ccccc3c2)c(C(N)=O)cc1F)C(N)=O` [Example 227, (R)-6-(1-amino-1-oxobutan-2-ylamino)-5-fluoro-2-(quinolin-3-ylamino)nicotinamide] was tested, and the IC50 was 10 to 100 nM.
`NC(=O)c1cc(F)c(N[C@@H]2CCCC(F)(F)[C@@H]2N)nc1Nc1csc2ncccc12` [Example 405, 6-((1R,2R)-2-amino-3,3-difluorocyclohexylamino)-5-fluoro-2-(thieno[2,3-b]pyridin-3-ylamino)nicotinamide] showed an IC50 of 10 to 100 nM.
For `Cn1cc2c(Nc3nc(N[C@@H]4CCCC[C@@H]4N)c(F)cc3C(N)=O)cccc2n1` [Example 65, 6-((1R,2S)-2-aminocyclohexylamino)-5-fluoro-2-(2-methyl-2H-indazol-4-ylamino)nicotinamide], the IC50 was 100 to 1000 nM.
In the case of `NC(=O)c1cc(F)c(N[C@@H]2CCCC[C@@H]2N)nc1Nc1ccc2ncccc2c1` [Example 66, 6-((1R,2S)-2-aminocyclohexylamino)-5-fluoro-2-(quinolin-6-ylamino)nicotinamide], the IC50 is reported as < 1 nM.
For `Cn1ccc2cc(Nc3nc(N[C@@H]4CCCC[C@@H]4N)ccc3C(N)=O)ccc21` [Example 397, 6-((1R,2S)-2-aminocyclohexylamino)-2-(1-methyl-1H-indol-5-ylamino)nicotinamide], the IC50 was 1 to 10 nM.
With `N#Cc1cc(C(N)=O)c(Nc2cnc3ccccc3c2)nc1N[C@@H]1CCCC[C@@H]1N` [Example 129] the IC50 was 1 to 10 nM.
Compound `CC(C)[C@H](CN)Nc1nc(Nc2ccc3ncccc3c2)c(C(N)=O)cc1C#N` [Example 128, (R)-6-(1-amino-3-methylbuttan-2-ylamino)-5-cyano-2-(quinolin-6-ylamino)nicotinamide] has an IC50 of 1 to 10 nM.
`NC(=O)c1cc(F)c(N[C@H]2[C@@H](N)CCCC2(F)F)nc1Nc1ccc2ncsc2c1` [Example 345, 6-((1S,6S)-6-amino-2,2-difluorocyclohexylamino)-2-(benzo[d]thiazol-6-ylamino)-5-fluoronicotinamide] showed an IC50 of 1 to 10 nM.
In the case of `NC(=O)c1cc(F)c(N[C@@H]2CCCC[C@@H]2N)nc1Nc1cncc(-n2nccn2)c1` [Example 154, 2-(5-(2H-1,2,3-triazol-2-yl)pyridin-3-ylamino)-6-((1R,2S)-2-aminocyclohexylamino)-5-fluoronicotinamide], the IC50 is reported as 1 to 10 nM.
`NC(=O)c1cc(F)c(N[C@@H]2CCCC[C@@H]2N)nc1Nc1cccc(N2CCOCC2)c1` [Example 48, 6-((1R,2S)-2-aminocyclohexylamino)-5-fluoro-2-(3-morpholinophenylamino)nicotinamide] was tested, and the IC50 was 10 to 100 nM.
Work on `CC(C)Cn1ccc2c(Nc3nc(N[C@@H]4CCCC(F)(F)[C@@H]4N)c(F)cc3C(N)=O)cccc21` [Example 392, 6-((1R,2R)-2-amino-3,3-difluorocyclohexylamino)-5-fluoro-2-(1-isobutyl-1H-indol-4-ylamino)nicotinamide] yielded an IC50 of 100 to 1000 nM.
`NC(=O)c1cc(F)c(N[C@@H]2CCCC[C@@H]2N)nc1Nc1ccc2scnc2c1` [Example 310] was tested, and the IC50 was 1 to 10 nM.
`NC(=O)c1cc(F)c(N[C@@H]2CCCC[C@@H]2N)nc1Nc1cnc2ncccc2c1` [Example 150, 2-(1,8-naphthyridin-3-ylamino)-6-((1R,2S)-2-aminocyclohexylamino)-5-fluoronicotinamide] showed an IC50 of 1 to 10 nM.
Compound `CC[C@@H](Nc1ccc(C(N)=O)c(Nc2cc(C)ns2)c1)C(N)=O` [Example 33, (R)-4-(1-amino-1-oxobutan-2-ylamino)-2-(3-methylisothiazol-5-ylamino)benzamide] has an IC50 of 10 to 100 nM.
For `Cc1cccc(Nc2nc(N[C@H](C)C(N)=O)ccc2C(N)=O)c1` [Example 104, (R)-2-(m-toluidino)-6-(1-amino-1-oxopropan-2-ylamino)nicotinamide], the IC50 was 100 to 1000 nM.
With `NC(=O)c1cc(F)c(N[C@H]2[C@@H](N)CCCC2(F)F)nc1Nc1cnc2ccccc2c1` [Example 344, 6-((1S,6S)-6-amino-2,2-difluorocyclohexylamino)-5-fluoro-2-(quinolin-3-ylamino)nicotinamide] the IC50 was 1 to 10 nM.
In the case of `NC(=O)c1cc(F)c(N[C@@H]2CCCC[C@@H]2N)nc1Nc1cncc(-n2cccn2)c1` [Example 155, 2-(5-(1H-pyrazol-1-yl)pyridin-3-ylamino)-6-((1R,2S)-2-aminocyclohexylamino)-5-fluoronicotinamide], the IC50 is reported as > 1000 nM.
`Cc1cc(Nc2cc(N[C@H](CC(C)C)C(N)=O)ccc2C(N)=O)on1` [Example 13, (R)-4-(1-amino-4-methyl-1-oxopentan-2-ylamino)-2-(3-methylisoxazol-5-ylamino)benzamide] gave an IC50 of 100 to 1000 nM.
Compound `CC(C)C[C@@H](Nc1nc(Nc2ccc3c(ccn3C)c2)c(C(N)=O)cc1F)C(N)=O` [Example 249, (R)-6-(1-amino-4-methyl-1-oxopentan-2-ylamino)-5-fluoro-2-(1-methyl-1H-indol-5-ylamino)nicotinamide] has an IC50 of 10 to 100 nM.
Work on `N#Cc1cc(C(N)=O)c(Nc2ccc3ncsc3c2)nc1NC[C@@H](N)C1CC1` [Example 119, (S)-6-(2-amino-2-cyclopropylethylamino)-2-(benzo[d]thiazol-6-ylamino)-5-cyanonicotinamide] yielded an IC50 of 10 to 100 nM.
`NC(=O)c1ccc(N[C@@H]2CCCC[C@@H]2N)nc1Nc1ccc2cccnc2c1` [Example 186, 6-((1R,2S)-2-aminocyclohexylamino)-2-(quinolin-7-ylamino)nicotinamide] was tested, and the IC50 was 1 to 10 nM.
`NC(=O)c1cc(F)c(N[C@@H]2CCCC[C@@H]2N)nc1Nc1ccc(-n2nccn2)cc1` [Example 49, 2-(4-(2H-1,2,3-triazol-2-yephenylamino)-6-(1R,2S)-2-aminocyclohexylamino)-5-fluoronicotinamide] gave an IC50 of 10 to 100 nM.
